{"source": "patent US8691183B2", "about": "“Means for the detection and treatment of prostate cells” (Eberhard-Karls-Universitaet Tuebingen Universitaetsklinikum, priority 2008, dated 2014)", "key": {"[1]": {"test_system": "PC-3 prostate carcinoma cells", "test": "Confocal laser scanning microscopy (CLSM) of cellular uptake", "assay_type": "cell-based, human", "settings": "20 minutes incubation, 10 μg/ml", "protocol": "(§1) The cells were grown to 80% confluency at 37° C., 5% CO2 (vol/vol) in 4-well plates (NUNC, Wiesbaden, Germany) with about 300,000 cells per well.\n(§2) U373 human glioma cells, human prostate carcinoma cells PC3 and LNCaP, human Jurkat lymphoma cells, and human colon carcinoma cells Colo205 were grown in RPMI1640 ready mix medium containing L-glutamine and 10% fetal bovine serum (FBS)-gold (PAA Laboratories, Pasching, Austria). U2OS human osteosarcoma cells and HeLa human cervix carcinoma cells were grown in high glucose Dulbeccos modified Eagle's medium containing GlutaMax™ and pyrovate and 10% FBS-gold. Healthy human prostate cells (CC2555, Lonza, Verviers, Belgium) were cultivated in prostate endothelial cell growth medium (PrEGM, Lonza, Verviers, Belgium).\n(§3) The compounds 1, 2 and 4 were dissolved at 1 mg/ml in pure ethanol (Riedel de Haen, Sigma-Aldrich, Taufkirchen, Germany) and then diluted in the appropriate medium for the cells to 10 μg/ml of conjugate and 1% ethanol. The cells were incubated at 37° C. in an atmosphere of 5% CO2 for 20 minutes with the compounds. After this, the cells were rinsed three times with medium and then incubated with medium again. This experiment was also performed with free sulforhodamine B with a corresponding amount.\nThe compound 10 was dissolved in culture medium (260 μM). Lys(FITC)-aminobourgeonal (compound 7) was dissolved in culture medium with 1% ethanol (260 μM). The cells were incubated for 20 minutes (compound 10) and for 2 days (compounds 7 and 10). This assay was also performed with free FITC. After the incubation the cells were rinsed three times with medium and again incubated in medium. Propidium iodide (PI) (molecular probes, Eugene, Oreg., USA) was added to stain death cells.\n(§4) The confocal laser scanning microscopy was performed on an inverted LSM510 laser scanning microscope (Carl Zeiss) (objective: LD Achroplan 40×0.6, Plan Neofluar 20×0.50, 40×0.75). For the rhodamine fluorescence excitation the 543 nm beam of a helium-neon laser with suitable beam splitters and barrier filters were used. […]"}, "[2]": {"test_system": "LNCaP prostate carcinoma cells", "test": "Confocal laser scanning microscopy (CLSM) of cellular uptake", "assay_type": "cell-based, human", "settings": "20 minutes incubation, 10 μg/ml", "protocol": "as §1, §2, §3\n(§5) The confocal laser scanning microscopy was performed on an inverted LSM510 laser scanning microscope (Carl Zeiss) (objective: LD Achroplan 40×0.6, Plan Neofluar 20×0.50, 40×0.75). For the rhodamine fluorescence excitation the 543 nm beam of a helium-neon laser with suitable beam splitters and barrier filters were used. All measures were performed at least three times on living, non-fixed cells."}, "[3]": {"test_system": "non-prostate tumor cell lines (colo 205 colon carcinoma, U373 glioma, U2OS osteosarcoma, HeLa cervix carcinoma, jurkat lymphoma)", "test": "Confocal laser scanning microscopy (CLSM) of cellular uptake", "assay_type": "cell-based, human", "settings": "all other (non-prostate) tumor cells; 20 minutes incubation; 10 μg/ml", "protocol": "as §1, §2, §3, §5"}, "[4]": {"test_system": "healthy human epithelial prostate cells (CC2555)", "test": "Confocal laser scanning microscopy (CLSM) of cellular uptake", "assay_type": "cell-based", "settings": "20 minutes incubation, 10 μg/ml", "protocol": "as §1, §2\nThe compounds 1, 2 and 4 were dissolved at 1 mg/ml in pure ethanol (Riedel de Haen, Sigma-Aldrich, Taufkirchen, Germany) and then diluted in the appropriate medium for the cells to 10 μg/ml of conjugate and 1% ethanol. The cells were incubated at 37° C. in an atmosphere of 5% CO2 for 20 minutes with the compounds. […]\nas §4"}, "[5]": {"test_system": "human prostate carcinoma (PC3) implanted into nude mice", "test": "CLSM of frozen sections of implanted tumor after intraperitoneal injection", "assay_type": "in vivo, nude mouse", "protocol": "(§6) PC3 and LNCaP prostate tumor cells were grown to 80% confluency, detached with Accutase™ (PAA Laboratories, Pasching, Austria) and then harvested. The cells were washed with PBS three times and then drawn up into a 30 g Micro-Fine™ insulin syringe (Becton Dickinson, Franklin Lakes, N.J., USA). Approximately 5×10^5 cells per mouse were injected into the right thigh of a male CD1 Nu/Nu mouse (Charles River, WIGA, Sulzfeld, Germany). The tumor growth was monitored and after 10 to 14 days mice bearing tumors with 2-3 mm in diameter were treated with the conjugate. 1.5 mg of the compound 1 were dissolved in 300 μl PBS containing 20% ethanol and applied intraperitoneally. After 90 minutes of circulation the mice were sacrificed and subsequently the tumors and organs were removed, embedded in Jung tissue freezing medium (Leica Instruments, Nussloch, Germany) and frozen in liquid nitrogen. Frozen sections (5 μm thickness) were prepared (LD3000 Cryotom, Leica Biosystems GmbH, Nussloch, Germany) and the rhodamine staining was analyzed by confocal laser scanning\nTo evaluate the in- and efflux of the rhodamine conjugated compound 1, the experiment was repeated with circulation times of 20 minutes and 180 minutes.\n(§7) The experiments were repeated two times."}, "nude mice organs": {"test_system": "nude mice organs", "test": "CLSM of frozen sections of nude mice organs after intraperitoneal injection", "assay_type": "in vivo, nude mouse", "settings": "90 minutes after intraperitoneal injection", "protocol": "as §6, §7"}, "PC3 prostate carcinoma": {"test_system": "PC3 prostate carcinoma", "test": "Touch prints of the tumor after intraperitoneal injection", "assay_type": "in vivo, nude mouse", "settings": "20 minutes after intraperitoneal injection; no fixation", "protocol": "For touch prints, the tumor of a mouse treated with the rhodamine containing compound 1 (1.5 mg intraperitoneally for 20 minutes) was excised. The tumor was cut and the cells were streaked onto a slide without fixation. The tumor cells were immediately analyzed by CLSM (without fixation).\nas §7"}, "[6]": {"test": "Tolerability in the animals", "assay_type": "in vivo", "settings": "intraperitoneal injection, nude mice"}}}
{"smiles": "CCN(CC)c1ccc2c(-c3ccc(S(=O)(=O)NCCCCCCCCCCC=O)cc3S(=O)(=O)O)c3ccc(=[N+](CC)CC)cc-3oc2c1", "note": "[compound 1, sulforhodamine-sulfonamido-aminoundecylic aldehyde]", "values": [{"measurement": "uptake into the cells (rhodamine staining, CLSM)", "setting": "[1]", "result": "take up the compound according to the invention into the cytoplasm"}, {"measurement": "uptake into the cells (rhodamine staining, CLSM)", "setting": "[2]", "result": "take up the compound according to the invention into the cytoplasm"}, {"measurement": "uptake into the cells (rhodamine staining, CLSM)", "setting": "[3]", "result": "do not take up the compound according to the invention"}, {"measurement": "uptake into the cells (rhodamine staining, CLSM)", "setting": "[4]", "result": "take up the compound according to the invention into the cytoplasm"}, {"measurement": "absorption into the cytoplasm of the prostate carcinoma cells", "setting": "[5]; 20 minutes after intraperitoneal injection", "result": "very well absorbed"}, {"measurement": "rhodamine fluorescence of the prostate carcinoma in frozen sections", "setting": "[5]; 90 minutes after intraperitoneal injection, in comparison to lymph nodes and lung", "result": "significantly stronger red fluorescence"}, {"measurement": "compound in the cytoplasm of the prostate carcinoma cells", "setting": "[5]; 180 minutes after intraperitoneal injection", "result": "efflux of the compound out of the cytoplasm"}, {"measurement": "staining of healthy prostate tissue of the mouse", "setting": "nude mice organs", "result": "almost no staining"}, {"measurement": "compound in tumor cells of touch prints", "setting": "PC3 prostate carcinoma", "result": "reached the cytoplasm of the prostate carcinoma cells"}, {"measurement": "tolerability", "setting": "[6]", "result": "very well tolerated by the animals"}]}
